From PubChem BioAssay AID1845212 (Molecular Pharmacology Branch, DTP, NCI, 2023)
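Further: spheroids exposed to compounds for seven days; percent viability relative to DMSO vehicle control as 100%.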

These compounds were tested on NCI-H719 tumor spheroids, viability (assay: Anticancer human tumor NCI-H719 cell line growth inhibition). Settings: second compound 10 µM; first compound 0.00949 µM; hits give low values; spheroids with HUVEC and MSC.
Summary of the method: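 Complex spheroids of malignant cells with endothelial cells and mesenchymal stem cells; agents alone or combined, from near clinical Cmax (or 10 microM if unknown) down in half-log steps, 0.25% DMSO final.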
In the case of `Cn1ncnc1[C@H]1c2n[nH]c(=O)c3cc(F)cc(c23)N[C@@H]1c1ccc(F)cc1` + Cn1nnc2c(C(N)=O)ncn2c1=O, the viability, T/C is reported as 7.72%.

Same assay, conditions: second compound 10 µM; first compound 0.03 µM; hits give low values; spheroids with HUVEC and MSC
`CNCc1ccc(-c2cc(-c3nc(-c4ccc(S(=O)(=O)C(C)C)cc4)cnc3N)on2)cc1` + Cn1nnc2c(C(N)=O)ncn2c1=O showed a viability, T/C of 93.7%. For `Cc1sc2c(c1C)C(c1ccc(Cl)cc1)=NC(CC(=O)Nc1ccc(O)cc1)c1nnc(C)n1-2` (stereo not given) + Cn1nnc2c(C(N)=O)ncn2c1=O, the viability, T/C was 89%. With `Cn1ncnc1[C@H]1c2n[nH]c(=O)c3cc(F)cc(c23)N[C@@H]1c1ccc(F)cc1` + Cn1nnc2c(C(N)=O)ncn2c1=O the viability, T/C was 6.58%.

Same assay, conditions: second compound 10 µM; first compound 0.0949 µM; hits give low values; spheroids with HUVEC and MSC
For `CNCc1ccc(-c2cc(-c3nc(-c4ccc(S(=O)(=O)C(C)C)cc4)cnc3N)on2)cc1` + Cn1nnc2c(C(N)=O)ncn2c1=O, the viability, T/C was 80.2%. With `Cc1sc2c(c1C)C(c1ccc(Cl)cc1)=NC(CC(=O)Nc1ccc(O)cc1)c1nnc(C)n1-2` (stereo not given) + Cn1nnc2c(C(N)=O)ncn2c1=O the viability, T/C was 73.1%. Work on `Cn1ncnc1[C@H]1c2n[nH]c(=O)c3cc(F)cc(c23)N[C@@H]1c1ccc(F)cc1` + Cn1nnc2c(C(N)=O)ncn2c1=O yielded a viability, T/C of 7.6%. For `O=C(c1cc(Cc2n[nH]c(=O)c3ccccc23)ccc1F)N1CCN(C(=O)C2CC2)CC1` + Cn1nnc2c(C(N)=O)ncn2c1=O, the viability, T/C was 55.8%.

Same assay, conditions: second compound 10 µM; first compound 0.3 µM; hits give low values; spheroids with HUVEC and MSC
For `CNCc1ccc(-c2cc(-c3nc(-c4ccc(S(=O)(=O)C(C)C)cc4)cnc3N)on2)cc1` + Cn1nnc2c(C(N)=O)ncn2c1=O, the viability, T/C was 15%. Compound `Cc1sc2c(c1C)C(c1ccc(Cl)cc1)=NC(CC(=O)Nc1ccc(O)cc1)c1nnc(C)n1-2` (stereo not given) + Cn1nnc2c(C(N)=O)ncn2c1=O has a viability, T/C of 39.8%. With `Cn1ncnc1[C@H]1c2n[nH]c(=O)c3cc(F)cc(c23)N[C@@H]1c1ccc(F)cc1` + Cn1nnc2c(C(N)=O)ncn2c1=O the viability, T/C was 6.29%. In the case of `O=C(c1cc(Cc2n[nH]c(=O)c3ccccc23)ccc1F)N1CCN(C(=O)C2CC2)CC1` + Cn1nnc2c(C(N)=O)ncn2c1=O, the viability, T/C is reported as 66.7%.

Same assay, conditions: second compound 10 µM; first compound 0.949 µM; hits give low values; spheroids with HUVEC and MSC
With `CNCc1ccc(-c2cc(-c3nc(-c4ccc(S(=O)(=O)C(C)C)cc4)cnc3N)on2)cc1` + Cn1nnc2c(C(N)=O)ncn2c1=O the viability, T/C was 8.28%. `Cc1sc2c(c1C)C(c1ccc(Cl)cc1)=NC(CC(=O)Nc1ccc(O)cc1)c1nnc(C)n1-2` (stereo not given) + Cn1nnc2c(C(N)=O)ncn2c1=O was tested, and the viability, T/C was 4.17%. `Cn1ncnc1[C@H]1c2n[nH]c(=O)c3cc(F)cc(c23)N[C@@H]1c1ccc(F)cc1` + Cn1nnc2c(C(N)=O)ncn2c1=O was tested, and the viability, T/C was 30.5%. With `O=C(c1cc(Cc2n[nH]c(=O)c3ccccc23)ccc1F)N1CCN(C(=O)C2CC2)CC1` + Cn1nnc2c(C(N)=O)ncn2c1=O the viability, T/C was 56%.

Same assay, conditions: second compound 10 µM; first compound 3 µM; hits give low values; spheroids with HUVEC and MSC
`CNCc1ccc(-c2cc(-c3nc(-c4ccc(S(=O)(=O)C(C)C)cc4)cnc3N)on2)cc1` + Cn1nnc2c(C(N)=O)ncn2c1=O gave a viability, T/C of 18.1%. `Cc1sc2c(c1C)C(c1ccc(Cl)cc1)=NC(CC(=O)Nc1ccc(O)cc1)c1nnc(C)n1-2` (stereo not given) + Cn1nnc2c(C(N)=O)ncn2c1=O was tested, and the viability, T/C was 2.94%. Work on `Cn1ncnc1[C@H]1c2n[nH]c(=O)c3cc(F)cc(c23)N[C@@H]1c1ccc(F)cc1` + Cn1nnc2c(C(N)=O)ncn2c1=O yielded a viability, T/C of 8.25%. With `O=C(c1cc(Cc2n[nH]c(=O)c3ccccc23)ccc1F)N1CCN(C(=O)C2CC2)CC1` + Cn1nnc2c(C(N)=O)ncn2c1=O the viability, T/C was 43.9%.

Same assay, conditions: second compound 10 µM; first compound 9.49 µM; hits give low values; spheroids with HUVEC and MSC
`O=C(c1cc(Cc2n[nH]c(=O)c3ccccc23)ccc1F)N1CCN(C(=O)C2CC2)CC1` + Cn1nnc2c(C(N)=O)ncn2c1=O was tested, and the viability, T/C was 29.8%.

Same assay, conditions: second compound 10 µM; first compound 30 µM; hits give low values; spheroids with HUVEC and MSC
With `O=C(c1cc(Cc2n[nH]c(=O)c3ccccc23)ccc1F)N1CCN(C(=O)C2CC2)CC1` + Cn1nnc2c(C(N)=O)ncn2c1=O the viability, T/C was 7.79%.

Same assay, conditions: second compound 31.6 µM; first compound 0.00949 µM; hits give low values; spheroids with HUVEC and MSC
Work on `CNCc1ccc(-c2cc(-c3nc(-c4ccc(S(=O)(=O)C(C)C)cc4)cnc3N)on2)cc1` + Cn1nnc2c(C(N)=O)ncn2c1=O yielded a viability, T/C of 105%. `Cc1sc2c(c1C)C(c1ccc(Cl)cc1)=NC(CC(=O)Nc1ccc(O)cc1)c1nnc(C)n1-2` (stereo not given) + Cn1nnc2c(C(N)=O)ncn2c1=O showed a viability, T/C of 107%. With `Cn1ncnc1[C@H]1c2n[nH]c(=O)c3cc(F)cc(c23)N[C@@H]1c1ccc(F)cc1` + Cn1nnc2c(C(N)=O)ncn2c1=O the viability, T/C was 6.42%.

Same assay, conditions: second compound 31.6 µM; first compound 0.03 µM; hits give low values; spheroids with HUVEC and MSC
`CNCc1ccc(-c2cc(-c3nc(-c4ccc(S(=O)(=O)C(C)C)cc4)cnc3N)on2)cc1` + Cn1nnc2c(C(N)=O)ncn2c1=O gave a viability, T/C of 106%. `Cc1sc2c(c1C)C(c1ccc(Cl)cc1)=NC(CC(=O)Nc1ccc(O)cc1)c1nnc(C)n1-2` (stereo not given) + Cn1nnc2c(C(N)=O)ncn2c1=O showed a viability, T/C of 104%. `Cn1ncnc1[C@H]1c2n[nH]c(=O)c3cc(F)cc(c23)N[C@@H]1c1ccc(F)cc1` + Cn1nnc2c(C(N)=O)ncn2c1=O gave a viability, T/C of 7.02%.

Same assay, conditions: second compound 31.6 µM; first compound 0.0949 µM; hits give low values; spheroids with HUVEC and MSC
`CNCc1ccc(-c2cc(-c3nc(-c4ccc(S(=O)(=O)C(C)C)cc4)cnc3N)on2)cc1` + Cn1nnc2c(C(N)=O)ncn2c1=O was tested, and the viability, T/C was 49.8%. `Cc1sc2c(c1C)C(c1ccc(Cl)cc1)=NC(CC(=O)Nc1ccc(O)cc1)c1nnc(C)n1-2` (stereo not given) + Cn1nnc2c(C(N)=O)ncn2c1=O gave a viability, T/C of 31.9%. `Cn1ncnc1[C@H]1c2n[nH]c(=O)c3cc(F)cc(c23)N[C@@H]1c1ccc(F)cc1` + Cn1nnc2c(C(N)=O)ncn2c1=O gave a viability, T/C of 7.1%. `O=C(c1cc(Cc2n[nH]c(=O)c3ccccc23)ccc1F)N1CCN(C(=O)C2CC2)CC1` + Cn1nnc2c(C(N)=O)ncn2c1=O gave a viability, T/C of 52.4%.

Same assay, conditions: second compound 31.6 µM; first compound 0.3 µM; hits give low values; spheroids with HUVEC and MSC
In the case of `CNCc1ccc(-c2cc(-c3nc(-c4ccc(S(=O)(=O)C(C)C)cc4)cnc3N)on2)cc1` + Cn1nnc2c(C(N)=O)ncn2c1=O, the viability, T/C is reported as 15.7%. In the case of `Cc1sc2c(c1C)C(c1ccc(Cl)cc1)=NC(CC(=O)Nc1ccc(O)cc1)c1nnc(C)n1-2` (stereo not given) + Cn1nnc2c(C(N)=O)ncn2c1=O, the viability, T/C is reported as 14.3%. In the case of `Cn1ncnc1[C@H]1c2n[nH]c(=O)c3cc(F)cc(c23)N[C@@H]1c1ccc(F)cc1` + Cn1nnc2c(C(N)=O)ncn2c1=O, the viability, T/C is reported as 7.06%.
